Our source for the MIC values is US20220073554A1, “LINCOSAMIDE ANTIBIOTICS AND USES THEREOF” (President and Fellows of Harvard College, priority 2017, published 2022).

Values after ≈ are worked out from the molar mass of the structure shown.

The subject of the first test is H. influenzae ATCC 49247. As to the kind of experiment: MIC against H. influenzae ATCC 49247. It counts as cell-based. The conditions noted are these: Haemophilus influenzae, ATCC49247.
Molecule `CSC1O[C@H]([C@H](NC(=O)[C@H]2NC[C@@H]3C[C@@H](C4CCN(C)CC4)CCO[C@H]32)[C@H](C)Cl)C(O)[C@@H](O)[C@H]1O` (stereo partly shown) [FSA-512012] had an MIC above 256 µg/mL.

`CSC1O[C@H]([C@H](NC(=O)[C@H]2NC[C@@H]3CC(NCc4ccccc4F)CCO[C@H]32)[C@H](C)Cl)C(O)[C@@H](O)[C@H]1O` (stereo partly shown) [FSA-510072] returned an MIC above 64 µg/mL.

In turn, `CSC1O[C@H]([C@H](NC(=O)[C@H]2NC[C@@H]3CC=CCO[C@@H]32)[C@H](C)Cl)C(O)[C@@H](O)[C@H]1O` (stereo partly shown) [FSA-504059] gave an MIC above 64 µg/mL.

`CSC1O[C@H]([C@H](NC(=O)[C@H]2NC[C@@H]3C[C@@H](C4CCNCC4)CCO[C@H]32)[C@H](C)Cl)C(O)[C@@H](O)[C@H]1O` (stereo partly shown) [FSA-512011] yielded an MIC above 256 µg/mL.

In another test the test system is S. pyogenes ATCC 19615. Kind of test: MIC against S. pyogenes ATCC 19615. It is filed as cell-based. Conditions: Streptococcus pyogenes, ATCC19615; S. pyogenes ATCC 19615; read-out: MIC.
In the case of `CSC1O[C@H]([C@H](NC(=O)[C@H]2NC[C@@H]3C[C@@H](C4CCN(C)CC4)CCO[C@H]32)[C@H](C)Cl)C(O)[C@@H](O)[C@H]1O` (stereo partly shown) [FSA-512012], the MIC was 4 µg/mL (≈ 7.46 µM).

Turning to `CSC1O[C@H]([C@H](NC(=O)[C@H]2NC[C@@H]3CC(NCc4ccccc4F)CCO[C@H]32)[C@H](C)Cl)C(O)[C@@H](O)[C@H]1O` (stereo partly shown) [FSA-510072], the MIC is 8 µg/mL (≈ 14.2 µM).

Consider `CSC1O[C@H]([C@H](NC(=O)[C@H]2NC[C@@H]3C[C@@H](C4CCNCC4)CCO[C@H]32)[C@H](C)Cl)C(O)[C@@H](O)[C@H]1O` (stereo partly shown) [FSA-512011], for which the MIC was found to be 4 µg/mL (≈ 7.66 µM).

The test system of the next test is S. aureus MP-549 msr(a) USA 300. As to the kind of experiment: MIC against S. aureus MP-549 msr(a) USA 300. It counts as cell-based. Conditions: Staphylococcus aureus, USA300, S. aureus MP-549 msr(a) USA 300.
In turn, `CSC1O[C@H]([C@H](NC(=O)[C@H]2NC[C@@H]3C[C@@H](C4CCN(C)CC4)CCO[C@H]32)[C@H](C)Cl)C(O)[C@@H](O)[C@H]1O` (stereo partly shown) [FSA-512012] returned an MIC of 8 µg/mL (≈ 14.9 µM).

Molecule `CSC1O[C@H]([C@H](NC(=O)[C@H]2NC[C@@H]3CC=CCO[C@@H]32)[C@H](C)Cl)C(O)[C@@H](O)[C@H]1O` (stereo partly shown) [FSA-504059] displayed an MIC of 2 µg/mL (≈ 4.58 µM).

As to `CSC1O[C@H]([C@H](NC(=O)[C@H]2NC[C@@H]3C[C@@H](C4CCNCC4)CCO[C@H]32)[C@H](C)Cl)C(O)[C@@H](O)[C@H]1O` (stereo partly shown) [FSA-512011], the MIC came to 8 µg/mL (≈ 15.3 µM).

Another test concerns E. faecalis ATCC 29212. Kind of test: MIC against E. faecalis ATCC 29212. It is filed as cell-based. The conditions noted are these: Enterococcus faecalis, ATCC29212.
`CSC1O[C@H]([C@H](NC(=O)[C@H]2NC[C@@H]3CC(NCc4ccccc4F)CCO[C@H]32)[C@H](C)Cl)C(O)[C@@H](O)[C@H]1O` (stereo partly shown) [FSA-510072] came in with an MIC above 64 µg/mL.

In another test the test system is E. coli MP-9 ΔTolC. Kind of test: MIC against E. coli MP-9 ΔTolC. It counts as cell-based. The conditions noted are these: Escherichia coli.
Take `CSC1O[C@H]([C@H](NC(=O)[C@H]2NC[C@@H]3C[C@@H](C4CCN(C)CC4)CCO[C@H]32)[C@H](C)Cl)C(O)[C@@H](O)[C@H]1O` (stereo partly shown) [FSA-512012]: the MIC was above 256 µg/mL.

The molecule `CSC1O[C@H]([C@H](NC(=O)[C@H]2NC[C@@H]3CC(NCc4ccccc4F)CCO[C@H]32)[C@H](C)Cl)C(O)[C@@H](O)[C@H]1O` (stereo partly shown) [FSA-510072] displayed an MIC above 64 µg/mL.

As for `CSC1O[C@H]([C@H](NC(=O)[C@H]2NC[C@@H]3CC=CCO[C@@H]32)[C@H](C)Cl)C(O)[C@@H](O)[C@H]1O` (stereo partly shown) [FSA-504059], the MIC is above 64 µg/mL.

Regarding `CSC1O[C@H]([C@H](NC(=O)[C@H]2NC[C@@H]3C[C@@H](C4CCNCC4)CCO[C@H]32)[C@H](C)Cl)C(O)[C@@H](O)[C@H]1O` (stereo partly shown) [FSA-512011], the MIC was above 256 µg/mL.

The next test deals with S. pneumoniae ATCC 49619. Kind of test: MIC against S. pneumoniae ATCC 49619. It counts as cell-based. The conditions noted are these: Streptococcus pneumoniae, ATCC49619; S. pneumoniae ATCC 49619; read-out: MIC.
For `CSC1O[C@H]([C@H](NC(=O)[C@H]2NC[C@@H]3C[C@@H](C4CCN(C)CC4)CCO[C@H]32)[C@H](C)Cl)C(O)[C@@H](O)[C@H]1O` (stereo partly shown) [FSA-512012], the MIC is 1 µg/mL (≈ 1.87 µM).

`CSC1O[C@H]([C@H](NC(=O)[C@H]2NC[C@@H]3CC(NCc4ccccc4F)CCO[C@H]32)[C@H](C)Cl)C(O)[C@@H](O)[C@H]1O` (stereo partly shown) [FSA-510072]: the MIC amounted to 32 µg/mL (≈ 56.9 µM).

`CSC1O[C@H]([C@H](NC(=O)[C@H]2NC[C@@H]3C[C@@H](C4CCNCC4)CCO[C@H]32)[C@H](C)Cl)C(O)[C@@H](O)[C@H]1O` (stereo partly shown) [FSA-512011]: the MIC was found to be 1 µg/mL (≈ 1.92 µM).

The next test relates to S. aureus ATCC 29213. As to the kind of experiment: MIC against S. aureus ATCC 29213. It is filed as cell-based. The conditions noted are these: Staphylococcus aureus, ATCC29213, S. aureus ATCC 29213; read-out: MIC.
As for `CSC1O[C@H]([C@H](NC(=O)[C@H]2NC[C@@H]3C[C@@H](C4CCN(C)CC4)CCO[C@H]32)[C@H](C)Cl)C(O)[C@@H](O)[C@H]1O` (stereo partly shown) [FSA-512012], the MIC amounted to 8 µg/mL (≈ 14.9 µM).

With `CSC1O[C@H]([C@H](NC(=O)[C@H]2NC[C@@H]3CC=CCO[C@@H]32)[C@H](C)Cl)C(O)[C@@H](O)[C@H]1O` (stereo partly shown) [FSA-504059], the MIC stood at 2 µg/mL (≈ 4.58 µM).

For `CSC1O[C@H]([C@H](NC(=O)[C@H]2NC[C@@H]3C[C@@H](C4CCNCC4)CCO[C@H]32)[C@H](C)Cl)C(O)[C@@H](O)[C@H]1O` (stereo partly shown) [FSA-512011], the MIC is 8 µg/mL (≈ 15.3 µM).

For the next test, the system named is K. pneumoniae ATCC 10031. As to the kind of experiment: MIC against K. pneumoniae ATCC 10031. It is filed as cell-based. The conditions noted are these: Klebsiella pneumoniae, ATCC10031.
On to `CSC1O[C@H]([C@H](NC(=O)[C@H]2NC[C@@H]3CC(NCc4ccccc4F)CCO[C@H]32)[C@H](C)Cl)C(O)[C@@H](O)[C@H]1O` (stereo partly shown) [FSA-510072], for which the MIC was above 64 µg/mL.

The molecule `CSC1O[C@H]([C@H](NC(=O)[C@H]2NC[C@@H]3CC=CCO[C@@H]32)[C@H](C)Cl)C(O)[C@@H](O)[C@H]1O` (stereo partly shown) [FSA-504059] had an MIC above 64 µg/mL.

A further test relates to E. coli ATCC 25922. As to the kind of experiment: MIC against E. coli ATCC 25922. The conditions noted are these: Escherichia coli, ATCC25922. It counts as cell-based.
`CSC1O[C@H]([C@H](NC(=O)[C@H]2NC[C@@H]3C[C@@H](C4CCN(C)CC4)CCO[C@H]32)[C@H](C)Cl)C(O)[C@@H](O)[C@H]1O` (stereo partly shown) [FSA-512012]: the MIC was above 256 µg/mL.

As for `CSC1O[C@H]([C@H](NC(=O)[C@H]2NC[C@@H]3CC(NCc4ccccc4F)CCO[C@H]32)[C@H](C)Cl)C(O)[C@@H](O)[C@H]1O` (stereo partly shown) [FSA-510072], the MIC is above 64 µg/mL.

Consider `CSC1O[C@H]([C@H](NC(=O)[C@H]2NC[C@@H]3CC=CCO[C@@H]32)[C@H](C)Cl)C(O)[C@@H](O)[C@H]1O` (stereo partly shown) [FSA-504059], for which the MIC is above 64 µg/mL.

Turning to `CSC1O[C@H]([C@H](NC(=O)[C@H]2NC[C@@H]3C[C@@H](C4CCNCC4)CCO[C@H]32)[C@H](C)Cl)C(O)[C@@H](O)[C@H]1O` (stereo partly shown) [FSA-512011], the MIC is above 256 µg/mL.

The next test relates to E. coli MP-74 LptD mutant. Kind of test: MIC against E. coli MP-74 LptD mutant. It counts as cell-based. The conditions noted are these: Escherichia coli.
Turning to `CSC1O[C@H]([C@H](NC(=O)[C@H]2NC[C@@H]3C[C@@H](C4CCN(C)CC4)CCO[C@H]32)[C@H](C)Cl)C(O)[C@@H](O)[C@H]1O` (stereo partly shown) [FSA-512012], the MIC was above 256 µg/mL.

`CSC1O[C@H]([C@H](NC(=O)[C@H]2NC[C@@H]3CC(NCc4ccccc4F)CCO[C@H]32)[C@H](C)Cl)C(O)[C@@H](O)[C@H]1O` (stereo partly shown) [FSA-510072] gave an MIC above 64 µg/mL.

As for `CSC1O[C@H]([C@H](NC(=O)[C@H]2NC[C@@H]3CC=CCO[C@@H]32)[C@H](C)Cl)C(O)[C@@H](O)[C@H]1O` (stereo partly shown) [FSA-504059], the MIC is above 64 µg/mL.

`CSC1O[C@H]([C@H](NC(=O)[C@H]2NC[C@@H]3C[C@@H](C4CCNCC4)CCO[C@H]32)[C@H](C)Cl)C(O)[C@@H](O)[C@H]1O` (stereo partly shown) [FSA-512011]: the MIC was above 256 µg/mL.
